Experimental data taken from patent US20220324835A1 (Nurix Therapeutics, Inc., priority 2018, published 2022).

Columns and labels:
Assay type in all cases: cell-based
[1] = test system: primary human total T-cells; test: T-cell activation assessed by CD69 expression
Outline: (§1)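 Primary human T-cells (>95% CD3+, negative selection from PBMC) were pre-incubated with inhibitor (e.g. 10, 1.11, 0.123 μM; DMSO <0.1%) for 1 h at 37 °C. They were then stimulated 48 h with plate-bound OKT3 (coated at 10 μg/mL), alone or with 5 μg/mL soluble anti-CD28. Results are fold change over uninhibited, identically stimulated cells.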

[2] = test system: primary human total T-cells; test: T-cell activation assessed by cell proliferation (Cell Trace Violet)
Outline: as §1

[3] = test system: primary human total T-cells; test: T-cell activation assessed by cytokine secretion (GM-CSF, IFNγ, TNFα)
Outline: as §1

[4] = CD3/CD28 stimulation, CD4 T-cells, read-out: % CD69+ (CD4)
[5] = CD3/CD28 stimulation, CD8 T-cells, read-out: % CD69+ (CD8)
[6] = CD3 alone stimulation, CD4 T-cells, read-out: % CD69+ (CD4)
[7] = CD3 alone stimulation, CD8 T-cells, read-out: % CD69+ (CD8)
[8] = CD3/CD28 stimulation, CD4 T-cells, read-out: % CP (cell proliferation) (CD4)
[9] = CD3/CD28 stimulation, CD8 T-cells, read-out: % CP (cell proliferation) (CD8)
[10] = CD3 alone stimulation, CD8 T-cells, read-out: % CP (cell proliferation) (CD8)
[11] = CD3/CD28 stimulation, read-out: GM-CSF secretion
[12] = CD3/CD28 stimulation, read-out: IFNγ secretion
[13] = CD3/CD28 stimulation, read-out: TNFα secretion
[14] = CD3 alone stimulation, read-out: GM-CSF secretion
[15] = CD3 alone stimulation, read-out: IFNγ secretion
[16] = CD3 alone stimulation, read-out: TNFα secretion

C[C@@H](c1cc2c(c(C(F)(F)F)c1)CN(c1cccc(C3(Cc4nncn4C)COC3)c1)C2=O)N1CC[C@H](F)C1 [Compound 412, 6-((S)-1-((S)-3-fluoropyrrolidin-1-yl)ethyl)-2-(3-(3-((4-methyl-4H-1,2,4-triazol-3-yl)methyl)oxetan-3-yl)phenyl)-4-(trifluoromethyl)isoindolin-1-one]
fold induction at 1.11 µM [1, 4]: 1.4 to 1.6
fold induction at 10 µM [1, 4]: 1.4 to 1.6
fold induction at 1.11 µM [1, 5]: 1.2 to 1.4
fold induction at 10 µM [1, 5]: 1.2 to 1.4
fold induction at 1.11 µM [1, 6]: > 1.6
fold induction at 10 µM [1, 6]: > 1.6
fold induction at 1.11 µM [1, 7]: 1.4 to 1.6
fold induction at 10 µM [1, 7]: 1.4 to 1.6
fold induction at 1.11 µM [2, 8]: > 4
fold induction at 10 µM [2, 8]: > 4
fold induction at 1.11 µM [2, 9]: > 4
fold induction at 10 µM [2, 9]: > 4
fold induction at 1.11 µM [2, 10]: > 4
fold induction at 10 µM [2, 10]: > 4
fold induction at 1.11 µM [3, 11]: > 4
fold induction at 1.11 µM [3, 12]: > 4
fold induction at 1.11 µM [3, 13]: 2.01 to 4
fold induction at 10 µM [3, 11]: > 4
fold induction at 10 µM [3, 12]: > 4
fold induction at 10 µM [3, 13]: > 4
fold induction at 1.11 µM [3, 14]: > 4
fold induction at 1.11 µM [3, 15]: 3.01 to 4
fold induction at 1.11 µM [3, 16]: 1.51 to 2
fold induction at 10 µM [3, 14]: > 4
fold induction at 10 µM [3, 15]: > 4
fold induction at 10 µM [3, 16]: 2.01 to 4

C[C@H](c1cc2c(c(C(F)(F)F)c1)CN(c1cccc(C3(Cc4nncn4C)COC3)c1)C2=O)N1CC[C@H](F)C1 [Compound 413, 6-((R)-1-((S)-3-fluoropyrrolidin-1-yl)ethyl)-2-(3-(3-((4-methyl-4H-1,2,4-triazol-3-yl)methyl)oxetan-3-yl)phenyl)-4-(trifluoromethyl)isoindolin-1-one]
fold induction at 1.11 µM [1, 4]: 1.4 to 1.6
fold induction at 10 µM [1, 4]: > 1.6
fold induction at 1.11 µM [1, 5]: 1.2 to 1.4
fold induction at 10 µM [1, 5]: 1.2 to 1.4
fold induction at 1.11 µM [1, 6]: 1.4 to 1.6
fold induction at 10 µM [1, 6]: > 1.6
fold induction at 1.11 µM [1, 7]: 1.2 to 1.4
fold induction at 10 µM [1, 7]: 1.4 to 1.6
fold induction at 1.11 µM [2, 8]: > 4
fold induction at 10 µM [2, 8]: > 4
fold induction at 1.11 µM [2, 9]: 3.01 to 4
fold induction at 10 µM [2, 9]: > 4
fold induction at 1.11 µM [2, 10]: 3.01 to 4
fold induction at 10 µM [2, 10]: > 4
fold induction at 1.11 µM [3, 11]: 2.01 to 4
fold induction at 1.11 µM [3, 12]: < 2
fold induction at 1.11 µM [3, 13]: 2.01 to 4
fold induction at 10 µM [3, 11]: > 4
fold induction at 10 µM [3, 12]: 3.01 to 4
fold induction at 10 µM [3, 13]: 2.01 to 4
fold induction at 1.11 µM [3, 14]: 1.51 to 2
fold induction at 1.11 µM [3, 15]: 2.01 to 3
fold induction at 1.11 µM [3, 16]: 1.51 to 2
fold induction at 10 µM [3, 14]: 2.01 to 4
fold induction at 10 µM [3, 15]: > 4
fold induction at 10 µM [3, 16]: 1.51 to 2

Cn1cnnc1CC1(c2cccc(N3Cc4c(cc(CN5CC(F)C5)cc4C(F)(F)F)C3=O)c2)COC1 [Compound 415, 6-((3-fluoroazetidin-1-yl)methyl)-2-(3-(3-((4-methyl-4H-1,2,4-triazol-3-yl)methyl)oxetan-3-yl)phenyl)-4-(trifluoromethyl)isoindolin-1-one]
fold induction at 1.11 µM [1, 4]: 1.2 to 1.4
fold induction at 10 µM [1, 4]: 1.4 to 1.6
fold induction at 1.11 µM [1, 5]: 1.2 to 1.4
fold induction at 10 µM [1, 5]: 1.2 to 1.4
fold induction at 1.11 µM [1, 6]: > 1.6
fold induction at 10 µM [1, 6]: > 1.6
fold induction at 1.11 µM [1, 7]: 1.2 to 1.4
fold induction at 10 µM [1, 7]: 1.4 to 1.6
fold induction at 1.11 µM [2, 8]: > 4
fold induction at 10 µM [2, 8]: > 4
fold induction at 1.11 µM [2, 9]: 3.01 to 4
fold induction at 10 µM [2, 9]: > 4
fold induction at 1.11 µM [2, 10]: > 4
fold induction at 10 µM [2, 10]: > 4
fold induction at 1.11 µM [3, 11]: 2.01 to 4
fold induction at 1.11 µM [3, 12]: 3.01 to 4
fold induction at 1.11 µM [3, 13]: 2.01 to 4
fold induction at 10 µM [3, 11]: > 4
fold induction at 10 µM [3, 12]: > 4
fold induction at 10 µM [3, 13]: 2.01 to 4
fold induction at 1.11 µM [3, 14]: 2.01 to 4
fold induction at 1.11 µM [3, 15]: 2.01 to 3
fold induction at 1.11 µM [3, 16]: 1.51 to 2
fold induction at 10 µM [3, 14]: > 4
fold induction at 10 µM [3, 15]: > 4
fold induction at 10 µM [3, 16]: 1.51 to 2

Cn1cnnc1CC1(c2cccc(N3Cc4c(cc(CN5CC[C@H](C#N)C5)cc4C(F)(F)F)C3=O)c2)COC1 [Compound 422, (S)-1-((2-(3-(3-((4-methyl-4H-1,2,4-triazol-3-yl)methyl)oxetan-3-yl)phenyl)-3-oxo-7-(trifluoromethyl)isoindolin-5-yl)methyl)pyrrolidine-3-carbonitrile]
fold induction at 1.11 µM [1, 4]: 1.2 to 1.4
fold induction at 10 µM [1, 4]: 1.4 to 1.6
fold induction at 1.11 µM [1, 5]: 1.2 to 1.4
fold induction at 10 µM [1, 5]: 1.2 to 1.4
fold induction at 1.11 µM [1, 6]: > 1.6
fold induction at 10 µM [1, 6]: > 1.6
fold induction at 1.11 µM [1, 7]: 1.2 to 1.4
fold induction at 10 µM [1, 7]: 1.4 to 1.6
fold induction at 1.11 µM [2, 8]: > 4
fold induction at 10 µM [2, 8]: > 4
fold induction at 1.11 µM [2, 9]: 2.01 to 3
fold induction at 10 µM [2, 9]: 3.01 to 4
fold induction at 1.11 µM [2, 10]: 3.01 to 4
fold induction at 10 µM [2, 10]: > 4
fold induction at 1.11 µM [3, 11]: 2.01 to 4
fold induction at 1.11 µM [3, 12]: 3.01 to 4
fold induction at 1.11 µM [3, 13]: 2.01 to 4
fold induction at 10 µM [3, 11]: > 4
fold induction at 10 µM [3, 12]: > 4
fold induction at 10 µM [3, 13]: 2.01 to 4
fold induction at 1.11 µM [3, 14]: 2.01 to 4
fold induction at 1.11 µM [3, 15]: < 2
fold induction at 1.11 µM [3, 16]: ≤ 1.5
fold induction at 10 µM [3, 14]: 2.01 to 4
fold induction at 10 µM [3, 15]: 3.01 to 4
fold induction at 10 µM [3, 16]: 1.51 to 2

Cn1cnnc1C(F)(F)[C@](C)(F)c1cccc(N2Cc3c(cc(C(=O)N4CC[C@H](O)C4)cc3C(F)(F)F)C2=O)c1 [Compound 438, 6-((S)-3-hydroxypyrrolidine-1-carbonyl)-2-(3-((R)-1,1,2-trifluoro-1-(4-methyl-4H-1,2,4-triazol-3-yl)propan-2-yl)phenyl)-4-(trifluoromethyl)isoindolin-1-one]
fold induction at 1.11 µM [1, 4]: 1.2 to 1.4
fold induction at 10 µM [1, 4]: 1.4 to 1.6
fold induction at 1.11 µM [1, 5]: ≤ 1.2
fold induction at 10 µM [1, 5]: 1.2 to 1.4
fold induction at 1.11 µM [1, 6]: 1.2 to 1.4
fold induction at 10 µM [1, 6]: > 1.6
fold induction at 1.11 µM [1, 7]: ≤ 1.2
fold induction at 10 µM [1, 7]: 1.2 to 1.4
fold induction at 1.11 µM [2, 8]: 3.01 to 4
fold induction at 10 µM [2, 8]: > 4
fold induction at 1.11 µM [2, 9]: < 2
fold induction at 10 µM [2, 9]: 3.01 to 4
fold induction at 1.11 µM [2, 10]: < 2
fold induction at 10 µM [2, 10]: > 4
fold induction at 1.11 µM [3, 11]: 1.51 to 2
fold induction at 1.11 µM [3, 12]: < 2
fold induction at 1.11 µM [3, 13]: ≤ 1.5
fold induction at 10 µM [3, 11]: 2.01 to 4
fold induction at 10 µM [3, 12]: 2.01 to 3
fold induction at 10 µM [3, 13]: 2.01 to 4
fold induction at 1.11 µM [3, 14]: ≤ 1.5
fold induction at 1.11 µM [3, 15]: < 2
fold induction at 1.11 µM [3, 16]: 2.01 to 4
fold induction at 10 µM [3, 14]: 2.01 to 4
fold induction at 10 µM [3, 15]: 2.01 to 3
fold induction at 10 µM [3, 16]: 1.51 to 2
